Values quoted from earlier work, collected in PMC4691061, “Repositioning of Thiourea-Containing Drugs as Tyrosinase Inhibitors” (International Journal of Molecular Sciences, 2015).

Biological target: tyrosinase
Details: tyrosinase; read-out: IC50; cited from earlier work

Q: Which IC50 does the source give for `CCc1cc(C(N)=S)ccn1` [ethionamide] here?
A: Its IC50 is 4 µM.
